Results as given in US4352799A, “2-Phenyl-1,2-benzisoselenazol-3(2H)-one containing pharmaceutical preparations and process for the treatment of rheumatic diseases” (A. Nattermann & Cie GmbH, priority 1980, dated 1982).

Experiments:
[1] = tested on: ulcus formation of the stomach; assay: Ulcus test; assay type: in vivo, rat (wistar); conditions: 3.5 hours
Method: The determination of ulcus formation is carried out according to W. J. R. WHITTLE, Brit.J.Pharmacology 1975, vol. 55, pgs. 242 to 243; L. MARIANI, Europ. J. Toxicol. Eviron, 1975, vol. 8, pgs. 335 to 339; R. MENGUY and L. DESBAILLETS, Proc.Soc.Exp.Bio., vol. 125, p. 1108. In this test, 10 female and 10 male wistar rats are used each weighing 120 to 150 g. and which had been fed only with […] for 2 days and were kept thereafter without feeding for 16 hours. The formation of a bleeding ulcus of the stomach was provocated by oral application of the compound to be tested. 3.5 hours after administration the test animals were killed, the stomach was separated, opened along the large curvature and fixed to a polystyrol plate. There is determined the number and size of average ulcus formation both in the test group and in the control group.

[2] = tested on: arthritis caused by Freud adjuvans (pad volume); assay: Adjunct-Arthritis (C. M. PEARSON); assay type: in vivo, rat (wistar); conditions: 7th day p.i.
[3] = tested on: edema in hindpads of rats; assay: rat pad edema test (HILLEBRECHT, Carragenine); assay type: in vivo; conditions: 3 hours
Method: The antiphlogistic properties are determined in the rat pad edema test according to HILLEBRECHT (J. HILLEBRECHT, Arzneim. Forsch. 1954, vol. 4, p. 607). In this test, the formation of an edema is caused in one of the hindpads of rats weighing each 200 to 250 grams, by subplantar injection of Carragenine (0.5% in 0.9% NaCl solution) in an amount of 0.1 ml. solution per each pad. After administration of the test compound in an amount which in general should not be larger than a volume of 10 ml. per kg. body weight, the volume of the pad is determined in an overflow. 3 hours after administration of the test compound the final volume is determined. The test is carried out with 10 test animals and 10 control animals of one sex per each dose and is repeated with the same number of animals of the other sex. For evaluation purposes the percent inhibition of edema formation is determined over the control group.

[4] = tested on: granuloma in the connective tissue; assay: Granuloma test (cotton-pellet-test) according to R. MEIER; assay type: in vivo, rat
Text: In this test, cotton pellets impregnated with crotone oil are implanted subcutaneously into the test animals (rats) which impregnated cotton pellets cause the formation of granuloma in the connective tissue. After killing of the test animals, the granuloma are separated and recovered and are weighed as wet or dry tissue. The anti-proliferatic activity of an antiphlogistic agent is expressed in a lower granuloma weight in comparison to untreated control animals.

[5] = tested on: arthritis caused by Freud adjuvans (pad volume); assay: Adjunct-Arthritis (C. M. PEARSON); assay type: in vivo, rat (wistar)
Method: There are used 10 wistar rats each weighing 120 to 150 g. per each dose. The same number of animals is used as control group. An arthritis is caused by subplantar injection of 0.5 ml. of Freud adjuvans. The test duration is 17 days. At the beginning of the test the volume of the pads of all for legs is determined as starting value. The volume is further determined on the 8th, 14th and 17th day of the test. In the evaluation, the difference between the pad volume at the beginning and at the end of the test is determined both in the test group as well as in the control group. The test result, i.e. the inhibition of the growth of the pad volume is expressed in percent.

[6] = 0.1 mg./kg. p.o., 14th day p.i.
[7] = 0.1 mg./kg. p.o., 17th day p.i.

SMILES: O=c1c2ccccc2[se]n1-c1ccccc1 [2-Phenyl-1.2-benzisoselenazol-3(2H)-one, 2-phenyl-1.2-benzisoselenazol-3(2H)-one]
- Ulcus formation, effectiveness ([1]; 1 mg./kg. p.o.): 0
- Ulcus formation, effectiveness ([1]; 10 mg./kg. p.o.): 0
- Ulcus formation, effectiveness ([1]; 100 mg./kg. p.o.): 0
- dose at lethality 0% (Toxicity in mice, p.o.; mice, p.o.): > 2,150 mg./Kg.
- mortality (Toxicity in mice, p.o.; mouse, in vivo, po, 2150 mg/kg): 0%
- inhibitory effect (growth of pad volume) ([2]; 0.1 mg./kg. p.o.): -22%
- inhibitory effect (growth of pad volume) ([2]; 1 mg./kg. p.o.): -46%
- inhibitory effect (growth of pad volume) ([2]; 10 mg./kg. p.o.): -30%
- mortality (Toxicity in rats, p.o.; rat, in vivo, po, 4600 mg/kg): 0%
- dose at lethality 0% (Toxicity in rats, p.o.; rats, p.o.): 4,600 mg./kg.
- Edema inhibition, inhibitory effect ([3]; 0.1 mg./kg. i.m.): -23%
- Edema inhibition, inhibitory effect ([3]; 0.1 mg./kg. p.o.): -1%
- Edema inhibition, inhibitory effect ([3]; 1.0 mg./kg. i.m.): -62%
- Edema inhibition, inhibitory effect ([3]; 1.0 mg./kg. p.o.): -57%
- Edema inhibition, inhibitory effect ([3]; 10 mg./kg. i.m.): -35%
- Edema inhibition, inhibitory effect ([3]; 10 mg./kg. p.o.): -40%
- Decrease of granuloma weight ([4]; 0.1 mg./kg. p.o.): -22%
- Decrease of granuloma weight ([4]; 1 mg./kg. p.o.): -21%
- Decrease of granuloma weight ([4]; 10 mg./kg. p.o.): -20%
- inhibitory effect (growth of pad volume) [5, 6]: -10%
- inhibitory effect (growth of pad volume) [5, 7]: -13%
- inhibitory effect (growth of pad volume) ([5]; 1 mg./kg. p.o., 14th day p.i.): -36%
- inhibitory effect (growth of pad volume) ([5]; 1 mg./kg. p.o., 17th day p.i.): -33%
- inhibitory effect (growth of pad volume) ([5]; 10 mg./kg. p.o., 14th day p.i.): -22%
- inhibitory effect (growth of pad volume) ([5]; 10 mg./kg. p.o., 17th day p.i.): -24%
- toxicity effects ([5]; at higher doses, p.o.): no toxicity effects occur

SMILES: COc1ccc2c(c1)c(CC(=O)O)c(C)n2C(=O)c1ccc(Cl)cc1 [Indometacin, reference compound]
- LD50 (Toxicity in mice, p.o.; mouse, in vivo, po): 19 mg/kg
- mortality (Toxicity in mice, p.o.; mouse, in vivo, po, 19 mg/kg): 50%
- inhibitory effect (growth of pad volume) ([2]; 0.1 mg./kg. p.o.): -32%
- inhibitory effect (growth of pad volume) ([2]; 1 mg./kg. p.o.): -50%
- lethality given in place of inhibitory effect ([2]; 10 mg./kg. p.o.): lethal
- LD50 (Toxicity in rats, p.o.; rat, in vivo, po): 38 mg/kg
- mortality (Toxicity in rats, p.o.; rat, in vivo, po, 38 mg/kg): 50%
- Edema inhibition, inhibitory effect ([3]; 1.0 mg./kg. i.m.): -9%
- Edema inhibition, inhibitory effect ([3]; 3 mg./kg. i.m.): -23%
- Edema inhibition, inhibitory effect ([3]; 3.8 mg./kg. p.o.): -26%
- Edema inhibition, inhibitory effect ([3]; 5.6 mg./kg. p.o.): -45%
- Edema inhibition, inhibitory effect ([3]; 8.3 mg./kg. p.o.): -57%
- Edema inhibition, inhibitory effect ([3]; 10 mg./kg. i.m.): -33%
- Decrease of granuloma weight ([4]; 1 mg./kg. p.o.): -21%
- Decrease of granuloma weight ([4]; 3.2 mg./kg. p.o.): -7%
- Decrease of granuloma weight ([4]; 5.6 mg./kg. p.o.): -6%
- inhibitory effect (growth of pad volume) [5, 6]: -25%
- inhibitory effect (growth of pad volume) [5, 7]: -37%
- inhibitory effect (growth of pad volume) ([5]; 1 mg./kg. p.o., 14th day p.i.): -40%
- inhibitory effect (growth of pad volume) ([5]; 1 mg./kg. p.o., 17th day p.i.): -40%
- lethality given in place of inhibitory effect ([5]; 10 mg./kg. p.o., 14th day p.i.): lethal
- lethality given in place of inhibitory effect ([5]; 10 mg./kg. p.o., 17th day p.i.): lethal
